From article doi:10.1101/2020.09.06.284752v1 (biorxiv, 2020)

Key:
recombinant human PFKM = biological target: T1, recombinant human PFKM (Homo sapiens, UniProt P08237); assay: PFKM enzymatic activity inhibition; format: biochemical
T1 sequence (P08237 2-780): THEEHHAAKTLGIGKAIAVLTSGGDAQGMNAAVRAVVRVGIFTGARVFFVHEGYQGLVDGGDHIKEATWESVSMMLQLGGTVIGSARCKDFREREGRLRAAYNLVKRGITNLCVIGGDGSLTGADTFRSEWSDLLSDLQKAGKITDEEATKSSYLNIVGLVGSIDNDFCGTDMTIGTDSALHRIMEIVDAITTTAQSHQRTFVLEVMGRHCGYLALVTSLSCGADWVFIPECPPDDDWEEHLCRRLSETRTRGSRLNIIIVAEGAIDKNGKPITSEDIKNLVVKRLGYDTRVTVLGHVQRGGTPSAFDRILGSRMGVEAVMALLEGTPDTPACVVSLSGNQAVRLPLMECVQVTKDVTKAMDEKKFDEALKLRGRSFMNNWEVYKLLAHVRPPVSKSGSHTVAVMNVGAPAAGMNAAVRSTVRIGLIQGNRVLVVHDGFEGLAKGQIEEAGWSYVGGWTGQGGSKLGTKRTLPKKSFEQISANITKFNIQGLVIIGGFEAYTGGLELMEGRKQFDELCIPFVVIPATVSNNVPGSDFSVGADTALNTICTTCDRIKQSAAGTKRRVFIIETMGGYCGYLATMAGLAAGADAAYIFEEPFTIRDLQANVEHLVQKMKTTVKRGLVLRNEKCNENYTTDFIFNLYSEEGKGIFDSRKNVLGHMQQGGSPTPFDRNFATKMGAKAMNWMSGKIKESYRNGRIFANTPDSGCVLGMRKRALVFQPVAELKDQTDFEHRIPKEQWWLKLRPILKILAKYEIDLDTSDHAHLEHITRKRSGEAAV

recombinant PFKL = biological target: T2, recombinant PFKL (Homo sapiens, UniProt P17858); assay: PFKL enzymatic activity inhibition; format: biochemical
T2 sequence (P17858 2-780): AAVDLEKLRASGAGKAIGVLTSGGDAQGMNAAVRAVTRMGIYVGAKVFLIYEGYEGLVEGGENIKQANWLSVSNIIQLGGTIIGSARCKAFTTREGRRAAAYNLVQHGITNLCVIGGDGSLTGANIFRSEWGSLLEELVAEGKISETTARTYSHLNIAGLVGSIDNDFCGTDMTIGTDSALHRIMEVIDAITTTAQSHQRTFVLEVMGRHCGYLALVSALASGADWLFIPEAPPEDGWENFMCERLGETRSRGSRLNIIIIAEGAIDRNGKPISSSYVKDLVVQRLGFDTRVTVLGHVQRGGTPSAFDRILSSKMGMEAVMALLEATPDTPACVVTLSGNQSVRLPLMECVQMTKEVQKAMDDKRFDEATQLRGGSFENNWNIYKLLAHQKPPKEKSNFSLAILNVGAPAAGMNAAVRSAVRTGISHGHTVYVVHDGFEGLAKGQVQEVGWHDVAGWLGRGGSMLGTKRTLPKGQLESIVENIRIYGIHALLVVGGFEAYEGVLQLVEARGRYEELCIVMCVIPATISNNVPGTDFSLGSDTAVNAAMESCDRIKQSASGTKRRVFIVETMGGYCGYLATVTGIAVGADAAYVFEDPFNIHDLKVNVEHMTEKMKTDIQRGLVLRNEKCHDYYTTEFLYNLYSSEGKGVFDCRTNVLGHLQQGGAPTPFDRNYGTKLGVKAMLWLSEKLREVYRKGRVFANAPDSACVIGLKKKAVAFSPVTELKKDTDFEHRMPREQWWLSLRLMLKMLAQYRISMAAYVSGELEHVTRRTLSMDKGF

Row | SMILES | IC50 (recombinant human PFKM) | IC50 (recombinant PFKL)
1 | O=C(c1cccs1)c1no[n+]([O-])c1C(=O)c1cccs1 [3-79] | 292 ± 20.8 nM | –
2 | CC1=C(O)C(=O)C=C2C1=CC=C1[C@@]2(C)CC[C@@]2(C)[C@@H]3C[C@](C)(C(=O)O)CC[C@]3(C)CC[C@]12C [celastrol] | 349 nM | 916 ± 35.7 nM
3 | C#CCNC(=O)[C@]1(C)CC[C@]2(C)CC[C@]3(C)C4=CC=C5C(=CC(=O)C(O)=C5C)[C@]4(C)CC[C@@]3(C)[C@@H]2C1 [1-85] | 507 nM | –
